Laboratory results: paper PMC6222422, “Synthesis and Biological Evaluation of Novel Indole-Derived Thioureas” (Molecules : A Journal of Synthetic Chemistry and Natural …, 2018)
Like-named read-outs stand apart in the source and are kept apart here.

How the values were obtained:
BVDV = test: microbe, parasite or virus in culture; assay type: cell-based, bovine viral diarrhoea virus; settings: for EC50: Bovine viral diarrhea virus isolates and strains, MDBK, in Bos taurus, read-out: BVDV EC50
in vitro [1] = settings: human
in vitro [2] = settings: cattle (Bos taurus)
RSV = test: microbe, parasite or virus in culture; assay type: cell-based, human respiratory syncytial virus; settings: for EC50: human respiratory syncytial virus, Vero 76, read-out: RSV EC50
VSV = test: microbe, parasite or virus in culture; assay type: cell-based; settings: Vesicular stomatitis virus, Vero 76, read-out: VSV EC50
Reo-1 = test: microbe, parasite or virus in culture; assay type: cell-based, reovirus type-1; settings: Reovirus sp., BHK, read-out: Reo-1 EC50
in vitro [3] = settings: Syrian hamster (Mesocricetus auratus)
Sb-1 = test: microbe, parasite or virus in culture; assay type: cell-based, poliovirus type-1; settings: Enterovirus C, Vero 76, read-out: Sb-1 EC50
HIV-1 = test: microbe, parasite or virus in culture
[4] = tested on: HIV-1 AZT^R strain (67N, 70R, 215F, 219Q); test: microbe, parasite or virus in culture; assay type: cell-based, Human Immunodeficiency Virus type-1
[5] = tested on: HIV-1 EFV^R (K103R + V179D + P225H mutant); test: microbe, parasite or virus in culture; assay type: cell-based, Human Immunodeficiency Virus type-1; settings: Human immunodeficiency virus 1, MT4, 96 h, read-out: EC50 EFV^R
CV-B5 = test: microbe, parasite or virus in culture; assay type: cell-based, coxsackievirus B5; settings: Enterovirus B, CVB5, Vero 76, read-out: CV-B5 EC50
YFV = test: microbe, parasite or virus in culture; assay type: cell-based; settings: Yellow fever virus, BHK, read-out: YFV EC50
[6] = tested on: HIV-1 A17 (K103N + Y181C mutant); test: microbe, parasite or virus in culture; assay type: cell-based, Human Immunodeficiency Virus type-1
[7] = tested on: HIV-1 MDR strain (74V, 41L, 106A, 215Y); test: microbe, parasite or virus in culture; assay type: cell-based, Human Immunodeficiency Virus type-1
HSV-1 = test: microbe, parasite or virus in culture; assay type: cell-based, human herpes 1; settings: Human alphaherpesvirus 1, Vero 76, read-out: HSV-1 EC50
in vitro [8] = settings: African green monkey (Cercopithecus aethiops)
VV = test: microbe, parasite or virus in culture; assay type: cell-based; settings: Orthopoxvirus vaccinia, Vero 76, read-out: VV EC50
[9] = tested on: HIV-1 N119 (Y181C mutant); test: microbe, parasite or virus in culture; assay type: cell-based, Human Immunodeficiency Virus type-1; settings: Human immunodeficiency virus 1, MT4, read-out: EC50 N119
[10] = Human immunodeficiency virus 1, MT4, read-out: HIV-1 EC50

Structure (SMILES)	EC50 (BVDV) [µM]	CC50 (in vitro [1]) [µM]	CC50 (in vitro [2]) [µM]	EC50 (RSV) [µM]	EC50 (VSV) [µM]	EC50 (Reo-1) [µM]	CC50 (in vitro [3]) [µM]	EC50 (Sb-1) [µM]	EC50 (HIV-1; [10]) [µM]	EC50 (CV-B5) [µM]	EC50 (YFV) [µM]	EC50 (HSV-1) [µM]	CC50 (in vitro [8]) [µM]	EC50 (VV) [µM]	other results
S=C(NCCc1c[nH]c2ccccc12)Nc1ccc(Br)cc1 [Compound 8, 1-(2-(1H-Indol-3-yl)ethyl)-3-(4-bromophenyl)thiourea]	> 52	45	52	> 13	> 13	> 10	10	> 13	8.7 ± 0.4	> 13	> 10	> 13	13	> 13	melting point: 156 to 158 °C; EC50 (HIV-1; Human immunodeficiency virus 1, MT4, read-out: EC50 HIV-1): 8.7 ± 0.8 µM; activity against AZT^R strain compared with wild type (in words) [4]: comparable with those of HIV-1 wild-type; EC50 ([4]; Human immunodeficiency virus 1, MT4, read-out: EC50 AZT^R): 9 ± 1 µM; EC50 [5]: > 45 µM; activity against A17 strain compared with wild type (in words) [6]: comparable with those of HIV-1 wild-type; EC50 ([6]; Human immunodeficiency virus 1, MT4, 96 h, read-out: EC50 A17): 12 ± 1.5 µM; activity against MDR strain compared with wild type (in words) [7]: comparable with those of HIV-1 wild-type; EC50 ([7]; Human immunodeficiency virus 1, MT4, read-out: EC50 MDR): 9 ± 0.8 µM; EC50 [9]: > 45 µM
S=C(NCCc1ccccc1)NCCc1c[nH]c2ccccc12 [Compound 16, 1-(2-(1H-Indol-3-yl)ethyl)-3-phenethylthiourea]	46	49	> 100	30 ± 2.6	> 100	> 18	18	> 100	> 49	18 ± 1.7	> 18	> 100	> 100	> 100	activity against BVDV (in words) (BVDV): showed activity; activity against RSV (in words) (RSV): moderately active; cytotoxicity for MDBK cell lines (in words) (MDBK cells): lack of cytotoxicity
